Data published in patent US20150328157A1, “APPLICATION OF SILICON DIOXIDE AEROGEL AS NANO-DRUG CARRYING SYSTEM IN PHARMACY” (GRADUATE SCHOOL AT SHENZHEN, TSINGHUA UNIVERSITY, priority 2012, published 2015).

Assay: Bioavailability of nanosized paclitaxel oral dosage form in rat bodies (plasma paclitaxel by HPLC)
Format: in vivo, SD rats
Settings: male, SD, one-time intragastric administration 40 mg/kg
Protocol: Chromatographic conditions: Elite SinoChrom 300A ODS-AP 5 nm 4.6×250 mm Mobile phase: methanol:water:acetonitrile=23:41:36; flow rate: 1.0 ml/min; detection wavelength: 227 nm; and sample size: 20 μl.
Preparation of an internal standard solution: weighing about 10 mg of a diazepam control product, precisely weighing, putting into a 100 ml measuring flask, dissolving with methanol, diluting to the scale and shaking up to obtain an internal standard stock solution with the concentration of 100 μg/ml. An appropriate amount of the stock solution was precisely weighed, diluted with methanol to prepare 10 μg/ml of internal standard control product solution and preserved in the refrigerator at 4° C. for later use.
100 ul of plasma sample was taken and put into an EP tube, 5 μl (10 μg/ml) and 40 μl of NaHCO3(1 mol/L) was added, whirling was performed for 1 min, 1 ml of an extraction solvent, namely ethyl ether, was added, whirling was performed for 2 min, centrifugation was performed at 3500 r/min for 10 min, supernatant fluid was taken and blow-dried under air flow of 40° C., the residue was dissolved in 40 μl of mobile phase, whirling was performed for 1 min, centrifugation was performed at 3500 r/min for 10 min, and then 20 μl of supernatant fluid was taken for sample injection and analysis. […]

- AUC: 4890 ng·h/mL
SMILES: CC(=O)O[C@H]1C(=O)[C@@]2(C)[C@H]([C@H](OC(=O)c3ccccc3)[C@]3(O)C[C@H](OC(=O)[C@H](O)[C@@H](NC(=O)c4ccccc4)c4ccccc4)C(C)=C1C3(C)C)[C@]1(OC(C)=O)CO[C@@H]1C[C@@H]2O [paclitaxel]
